The source of these data is publication PMC2741015 (Molecular and biochemical parasitology, 2009).

The target of data set [1] is T1, P. falciparum SHMT (PfSHMT) (Plasmodium falciparum, UniProt Q8I566).
T1 sequence (Q8I566 1-442): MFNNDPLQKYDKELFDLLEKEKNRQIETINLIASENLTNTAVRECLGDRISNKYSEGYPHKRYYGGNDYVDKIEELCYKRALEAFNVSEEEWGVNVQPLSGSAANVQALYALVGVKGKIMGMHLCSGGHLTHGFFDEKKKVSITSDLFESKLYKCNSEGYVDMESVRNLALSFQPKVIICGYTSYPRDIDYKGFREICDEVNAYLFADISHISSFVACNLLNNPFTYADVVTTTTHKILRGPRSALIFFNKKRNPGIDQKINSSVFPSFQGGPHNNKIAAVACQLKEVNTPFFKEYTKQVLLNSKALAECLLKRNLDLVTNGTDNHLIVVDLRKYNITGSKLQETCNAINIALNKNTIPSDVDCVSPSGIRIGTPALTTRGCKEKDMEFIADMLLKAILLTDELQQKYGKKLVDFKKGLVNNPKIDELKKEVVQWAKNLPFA
Briefly: PfSHMT activity inhibition by antifolates. It is filed as biochemical.

The target of data set [2] is PfSHMT protein interaction with SHMT or DHFR-TS mRNA (Plasmodium falciparum, UniProt Q8I566). The experiment in a line: RNA-protein interaction gel shift, competition with substrates. Conditions: 500 nM SHMT protein, 0.5 nM labeled RNA; 125 μM PLP, 3 mM serine, 3 mM THF. Type of data set: binding.
Data set [3] deals with P. falciparum SHMT apo enzyme (Plasmodium falciparum, UniProt Q8I566). The experiment in a line: Activity of apo PfSHMT with and without PLP. It is filed as biochemical. Conditions: apo enzyme with vs without PLP (Fig 4A).
Data set [4] addresses T1, P. falciparum SHMT (PfSHMT). The experiment in a line: Michaelis-Menten constants of PfSHMT substrates. It is filed as biochemical.
The data set “SEC” concerns the molecule itself. The experiment in a line: SEC.

In general, IC50 refers to the concentration that inhibits the measured activity by half. As usually defined, the Vmax is the top rate of the reaction or transport when substrate is in excess. One may read the Km as the substrate concentration at which the rate is half of its maximum. One may read the stoichiometry N as a count of units in the complex or per binding partner.

Consider `Cc1nc2ccc(CN(C)c3ccc(C(=O)N[C@@H](CCC(=O)O)C(=O)O)s3)cc2c(=O)[nH]1` [D1694], for which, in data set [1], the IC50 is more than 500 µM.

With `Cc1ncc(COP(=O)(O)O)c(C=O)c1O` [PLP, pyridoxal 5’-phosphate], the “Effect on PfSHMT protein interaction with SHMT or DHFR-TS mRNA” value in data set [2] is given as “not abrogated”. Besides, the “Enzyme activity of apo enzyme with PLP added to the reaction” value in data set [3] is listed as “increased by more than ten fold”.

Regarding `CN(Cc1cnc2nc(N)nc(N)c2n1)c1ccc(C(=O)N[C@@H](CCC(=O)O)C(=O)O)cc1` [methotrexate], the IC50 in data set [1] is more than 500 µM.

The molecule `Nc1nc2[nH]cc(CCc3ccc(C(=O)N[C@@H](CCC(=O)O)C(=O)O)cc3)c2c(=O)[nH]1` [pemetrexed] had an IC50 in data set [1] of more than 500 µM.

As to `CCc1nc(N)nc(N)c1-c1ccc(Cl)cc1` [pyrimethamine], in data set [1], the half-inhibitory concentration (IC50) is more than 500 µM.

Turning to `N[C@@H](CO)C(=O)O` [serine], the “Effect on PfSHMT protein interaction with SHMT or DHFR-TS mRNA” value in data set [2] is “not abrogated”.

With tetrahydrofolate [THF], the Vmax in data set [4] (from velocity vs. substrate fit) worked out at 188.5 pmol/min. Besides, in data set [4] (read-out: Km, P falciparum, Table 1, P. falciparum SHMT), the Km amounted to 3.4 mM.

B1: Plasmodium falciparum serine hydroxymethyltransferase with an N-terminal histidine tag (enzyme, Plasmodium falciparum (strain 3D7), UniProt Q8I566 1-442, looked up)
chain: T1 sequence (Q8I566 1-442)
Take B1: in the data set “SEC”, the “stoichiometry N” value turned out to be 2.
